This is an account of results in patent publication US10669235B2, “Indole derivatives and their use as protein kinase inhibitors” (RESPIVERT LIMITED, priority 2016, dated 2020).

Data set [1] deals with T1, PDGFRβ (Homo sapiens (Human), UniProt P09619). In words: PDGFRβ enzyme inhibition (ADP-Glo assay). Format: biochemical. For orientation: ADP-Glo first removes unused ATP, then detects ADP through luciferase.
Data set [2] concerns the target T1, PDGFRβ. The data set can be described thus: PDGF-BB induced phosphorylation of PDGFRβ in fibroblasts (MRC5, HTRF). The following applies: MRC5 cells, PDGFBB stimulation; read-out: PDGFBB-induced PDGFRβ phosphorylation in MRC5 cells (IC50). Format: cell-based. On the technique in general: In TR-FRET formats the signal depends on donor and acceptor labels being close together.

In a further data set the test system is MRC5 cells. The data set can be described thus: Cell viability assay in MRC5 cells (MTT).
The nature of a further data set: PAMPA permeability assay. Format: in vitro ADME. Particulars: pH 7, PAMPA; for Papp at 5 hr, 10 μM: pH 7, 10 μM.
Data set [3] in a line: Pharmacokinetic measurements in rats (i.v., i.t., oral). Format: in vivo. The following applies: rat; for concentration at 0.1 h: read-out: lung concentration (nM) at time 0.1 h; for concentration at 1.5 h: read-out: lung concentration (nM) at time 1.5 h; for concentration at 6 h: read-out: lung concentration (nM) at time 6 h; for concentration at 24 h: read-out: lung concentration (nM) at time 24 h.

[4] abbreviates: i.t. dose 0.1 (nintedanib 0.42).
The mark [5] stands for this setting: i.t. dose 0.1 (nintedanib 0.42), 6 h.
Where [6] appears, read: i.t. dose 0.1 (nintedanib 0.42), 24 h.
[7] abbreviates: i.v. dose 0.1 (nintedanib 0.42).
Setting [8] is: i.v. dose 0.1 (nintedanib 0.42), 6 h.
Where [9] appears, read: i.v. dose 0.1 (nintedanib 0.42), 24 h.

Structures can show the parent of a compound that is named as a salt. Where two headings read alike, the source gives them in different places.

T1 sequence (P09619 33-1106): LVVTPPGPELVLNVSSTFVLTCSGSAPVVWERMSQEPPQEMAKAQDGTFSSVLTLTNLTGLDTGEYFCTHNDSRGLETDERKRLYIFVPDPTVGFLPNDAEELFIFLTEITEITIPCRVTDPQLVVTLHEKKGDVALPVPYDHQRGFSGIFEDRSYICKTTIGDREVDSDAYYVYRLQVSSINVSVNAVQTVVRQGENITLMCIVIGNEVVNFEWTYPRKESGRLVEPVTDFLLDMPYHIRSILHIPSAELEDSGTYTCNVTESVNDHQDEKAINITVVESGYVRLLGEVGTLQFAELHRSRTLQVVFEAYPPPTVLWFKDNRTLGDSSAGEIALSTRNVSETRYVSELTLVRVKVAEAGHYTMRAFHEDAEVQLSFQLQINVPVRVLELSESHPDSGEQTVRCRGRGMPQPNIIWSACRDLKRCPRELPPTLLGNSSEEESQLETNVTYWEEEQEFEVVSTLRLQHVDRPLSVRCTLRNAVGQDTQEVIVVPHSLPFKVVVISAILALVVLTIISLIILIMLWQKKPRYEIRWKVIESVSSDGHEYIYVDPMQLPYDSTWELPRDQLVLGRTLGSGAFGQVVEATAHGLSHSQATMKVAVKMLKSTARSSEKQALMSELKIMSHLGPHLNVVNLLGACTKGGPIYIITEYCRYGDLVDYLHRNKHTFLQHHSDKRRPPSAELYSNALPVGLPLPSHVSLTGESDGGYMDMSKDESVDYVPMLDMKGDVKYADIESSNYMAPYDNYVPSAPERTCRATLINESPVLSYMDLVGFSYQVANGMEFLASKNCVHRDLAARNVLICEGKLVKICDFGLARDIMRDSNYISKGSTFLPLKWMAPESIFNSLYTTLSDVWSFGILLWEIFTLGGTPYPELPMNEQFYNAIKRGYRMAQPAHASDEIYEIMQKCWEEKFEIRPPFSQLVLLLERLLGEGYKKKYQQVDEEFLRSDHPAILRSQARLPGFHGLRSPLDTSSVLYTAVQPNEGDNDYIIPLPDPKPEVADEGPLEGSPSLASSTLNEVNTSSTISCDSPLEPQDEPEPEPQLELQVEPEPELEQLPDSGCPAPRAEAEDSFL

A word on the Ki: it is a dissociation constant, usually derived from enzyme kinetics or from competition with a known ligand. The low end stands for tighter binding, the high end for weaker binding. In general, IC50 refers to the concentration needed to halve the response being measured. `COC(=O)c1cc2c(cc1C)/C(=C(/Nc1ccc(C(=O)NCCN3CCC(F)CC3)cc1)c1ccccc1)C(=O)N2` [Example 28, (Z)-Methyl 3-(((4-((2-(4-fluoropiperidin-1-yl)ethyl)carbamoyl)phenyl)amino)(phenyl)methylene)-5-methyl-2-oxoindoline-6-carboxylate, formate]: the Ki at PDGFRβ [1] amounted to 20 nM. Further, the IC50 on PDGFRβ [2] turned out to be 51.3 nM. For the same compound, in the data set with MRC5 cells, the “Cell viability at 100 nM (%)” value was 149.4%, the “Cell viability at 300 nM (%)” value came to 97.6% and the “Cell viability at 1000 nM (%)” value is 83.6%.

Consider `COC(=O)c1cc2c(cc1C)/C(=C(/Nc1ccc(C(=O)NCCN(C)C)cc1)c1ccccc1)C(=O)N2` [Example 2, (Z)-Methyl 3-(((4-((2-(dimethylamino)ethyl)carbamoyl)phenyl)amino)(phenyl)methylene)-5-methyl-2-oxoindoline-6-carboxylate, formate], for which the affinity at PDGFRβ [1], expressed as Ki, was 11.1 nM. Moreover, at PDGFRβ [2], the concentration for half-maximal inhibition (IC50) was 36.7 nM. In the data set on MRC5 cells, the “Cell viability at 100 nM (%)” value is on record as 94%, the “Cell viability at 300 nM (%)” value was 91% and the “Cell viability at 1000 nM (%)” value is on record as 68.5%.

By Papp is commonly meant a coefficient for how fast a substance crosses the barrier. Read a low Papp as poor permeation. In the case of `COC(=O)c1cc2c(cc1C)/C(=C(/Nc1ccc(C(=O)NCCN3CCC(N(C)C)CC3)cc1)c1ccccc1)C(=O)N2` [Example 6, (Z)-Methyl 3-(((4-((2-(4-(dimethylamino)piperidin-1-yl)ethyl)carbamoyl)phenyl)amino) (phenyl)methylene)-5-methyl-2-oxoindoline-6-carboxylate, formate], at PDGFRβ [2], the IC50 came to 13.2 nM. Further, in “PAMPA permeability assay”, the recovery at 5 hr, 10 μM is 56.5% and the Papp at 5 hr, 10 μM was 0.012 ×10⁻⁶ cm/s. For the same compound, in data set [3], the “Lung conc i.t./i.v. Ratio at time 0.1 h” value came to 9.8 and the “Lung conc i.t./i.v. Ratio at time 1.5 h” value came to 8.0. Also, the “Lung conc i.t./i.v. Ratio at time 6 h” value in data set [3] (6 h) worked out at 8.3. Further, the “Lung conc i.t./i.v. Ratio at time 24 h” value in data set [3] (24 h) is listed as 7.7. Also, in data set [3] (setting [4]), the “BAL % administered dose at time 0.1 h” value was 14%, the “lung/plasma conc ratio at time 0.1 h” value is reported as 472, the concentration at 0.1 h amounted to 9826 nM and the “BAL % administered dose at time 1.5 h” value came out at 0.9%. In data set [3] (setting [4]), the “lung/plasma conc ratio at time 1.5 h” value is recorded as >4452 and the concentration at 1.5 h was determined as 7568 nM. Moreover, in data set [3] (setting [5]), the “BAL % administered dose at time 6 h” value stood at 1.1%, the “lung/plasma conc ratio at time 6 h” value is >4597 and the concentration at 6 h was determined as 7815 nM. In data set [3] (setting [6]), the “BAL % administered dose at time 24 h” value turned out to be 0.9%, the “lung/plasma conc ratio at time 24 h” value is on record as >3787 and the concentration at 24 h came to 6438 nM. In data set [3] (setting [7]), the “BAL % administered dose at time 0.1 h” value is listed as “BQL”, the “lung/plasma ratio at time 0.1 h” value came out at 77, the concentration at 0.1 h is given as 1002 nM and the “BAL % administered dose at time 1.5 h” value is “BQL”. Further, in data set [3] (setting [7]), the “lung/plasma ratio at time 1.5 h” value was >558 and the concentration at 1.5 h is listed as 949 nM. Moreover, in data set [3] (setting [8]), the “BAL % administered dose at time 6 h” value is recorded as “BQL”, the “lung/plasma ratio at time 6 h” value is reported as >552 and the concentration at 6 h is 939 nM. In data set [3] (setting [9]), the “BAL % administered dose at time 24 h” value is reported as “BQL”, the “lung/plasma ratio at time 24 h” value was >492 and the concentration at 24 h amounted to 837 nM. For the same compound, in the data set on MRC5 cells, the “Cell viability at 100 nM (%)” value was determined as 102.3%, the “Cell viability at 300 nM (%)” value was found to be 98.9% and the “Cell viability at 1000 nM (%)” value is on record as 91.2%.

As for `COC(=O)c1cc2c(cc1C)/C(=C(/Nc1cccc(C(=O)N(C)CCN(C)C)c1)c1ccccc1)C(=O)N2` [Example 16, (Z)-Methyl 3-(((3-((2-(dimethylamino)ethyl)(methyl)carbamoyl)phenyl)amino)(phenyl)methylene)-5-methyl-2-oxoindoline-6-carboxylate], on PDGFRβ [1] (mean, n = 2 (nintedanib n = 34)), affinity was put at a Ki of 13 nM. In the data set on MRC5 cells, the “Cell viability at 100 nM (%)” value is on record as 103.2%, the “Cell viability at 300 nM (%)” value is 104.3% and the “Cell viability at 1000 nM (%)” value was found to be 70.6%.

What is called MRT is the average time that molecules of a dose stay in the body. The term half-life denotes how long it takes for the measured level to halve. On to `COC(=O)c1cc2c(cc1C)/C(=C(/Nc1ccc(C(=O)NCC(=O)N3CCN(CCO)CC3)cc1)c1ccccc1)C(=O)N2` [Example 7, (Z)-Methyl 3-(((4-((2-(4-(2-hydroxyethyl)piperazin-1-yl)-2-oxoethyl)carbamoyl)phenyl)amino) (phenyl)methylene)-5-methyl-2-oxoindoline-6-carboxylate, formate], for which, on PDGFRβ [2], the 50% inhibitory concentration (IC50) was found to be 6.04 nM. Further, in “PAMPA permeability assay”, the recovery at 5 hr, 10 μM came to 56.3% and the apparent permeability (Papp) at 5 hr, 10 μM was 0.00653 ×10⁻⁶ cm/s. In data set [3] (male, CD, plasma, iv), this compound gave an MRT of 42 min, a clearance of 75 mL/min/kg and a half-life of 36 min. Moreover, the Vd in data set [3] (male, CD, plasma, iv, read-out: Vss) is 3.4 L/kg. For the same compound, in data set [3], the “Lung conc i.t./i.v. Ratio at time 0.1 h” value amounted to 15.5 and the “Lung conc i.t./i.v. Ratio at time 1.5 h” value is on record as 20.1. The “Lung conc i.t./i.v. Ratio at time 6 h” value in data set [3] (6 h) is reported as >42. Moreover, in data set [3] (24 h), the “Lung conc i.t./i.v. Ratio at time 24 h” value was >10. For the same compound, in data set [3] (setting [4]), the “i.t. BAV (%)” value was 35%, the “BAL % administered dose at time 0.1 h” value turned out to be 3.5%, the “lung/plasma conc ratio at time 0.1 h” value is reported as 39 and the concentration at 0.1 h was determined as 1532 nM. For the same compound, in data set [3] (setting [4]), the “BAL % administered dose at time 1.5 h” value was 0.6%, the “lung/plasma conc ratio at time 1.5 h” value is >265 and the concentration at 1.5 h is recorded as 886 nM. In addition, in data set [3] (setting [5]), the “BAL % administered dose at time 6 h” value worked out at 0.1%, the “lung/plasma conc ratio at time 6 h” value is >35 and the concentration at 6 h turned out to be 116 nM. For the same compound, in data set [3] (setting [6]), the “BAL % administered dose at time 24 h” value was “BQL”, the “lung/plasma conc ratio at time 24 h” value is listed as >8 and the concentration at 24 h came to 27 nM. In data set [3] (setting [7]), the “BAL % administered dose at time 0.1 h” value was 0.06%, the “lung/plasma ratio at time 0.1 h” value came to 2, the concentration at 0.1 h is on record as 99 nM and the “BAL % administered dose at time 1.5 h” value was “BQL”. In addition, in data set [3] (setting [7]), the “lung/plasma ratio at time 1.5 h” value worked out at 12 and the concentration at 1.5 h is given as 44 nM. In addition, in data set [3] (setting [8]), the “BAL % administered dose at time 6 h” value is “BQL” and the “lung concentration (nM) at time 6 h” value was “BQL”. In data set [3] (setting [9]), the “BAL % administered dose at time 24 h” value was “BQL” and the “lung concentration (nM) at time 24 h” value is reported as “BQL”. In addition, in data set [3] (oral dose 3 mg/kg), the “Oral BAV (%)” value was <7%. For the same compound, in the data set on MRC5 cells, the “Cell viability at 100 nM (%)” value amounted to 102.9%, the “Cell viability at 300 nM (%)” value was 97.2% and the “Cell viability at 1000 nM (%)” value is 67.5%.

On to `COC(=O)c1cc2c(cc1C)/C(=C(/Nc1ccc(C(=O)NCCN3CCCN(C)CC3)cc1)c1ccccc1)C(=O)N2` [Example 5, (Z)-Methyl 5-methyl-3-(((4-((2-(4-methyl-1,4-diazepan-1-yl)ethyl)carbamoyl)phenyl)amino) (phenyl)methylene)-2-oxoindoline-6-carboxylate, formate], for which the 50% inhibitory concentration (IC50) at PDGFRβ [2] is 15 nM. For the same compound, in “PAMPA permeability assay”, the recovery at 5 hr, 10 μM turned out to be 58.7% and the apparent permeability (Papp) at 5 hr, 10 μM turned out to be 0.00254 ×10⁻⁶ cm/s. In data set [3], the “Lung conc i.t./i.v. Ratio at time 0.1 h” value came out at 7 and the “Lung conc i.t./i.v. Ratio at time 1.5 h” value turned out to be 12. The “Lung conc i.t./i.v. Ratio at time 6 h” value in data set [3] (6 h) was found to be 2. The “Lung conc i.t./i.v. Ratio at time 24 h” value in data set [3] (24 h) is listed as 7. Besides, in data set [3] (setting [4]), the “BAL % administered dose at time 0.1 h” value worked out at 13.6%, the “lung/plasma conc ratio at time 0.1 h” value was 371, the concentration at 0.1 h worked out at 5506 nM and the “BAL % administered dose at time 1.5 h” value turned out to be 0.9%. Moreover, in data set [3] (setting [4]), the “lung/plasma conc ratio at time 1.5 h” value is on record as >2285 and the concentration at 1.5 h is reported as 4022 nM. For the same compound, in data set [3] (setting [5]), the “BAL % administered dose at time 6 h” value is 0.2%, the “lung/plasma conc ratio at time 6 h” value was >606 and the concentration at 6 h is on record as 1067 nM. Moreover, in data set [3] (setting [6]), the “BAL % administered dose at time 24 h” value is 0.2%, the “lung/plasma conc ratio at time 24 h” value is recorded as >951 and the concentration at 24 h is listed as 1674 nM. In addition, in data set [3] (setting [7]), the “BAL % administered dose at time 0.1 h” value is “BQL”, the “lung/plasma ratio at time 0.1 h” value is listed as 127, the concentration at 0.1 h came to 765 nM and the “BAL % administered dose at time 1.5 h” value is listed as “BQL”. Further, in data set [3] (setting [7]), the “lung/plasma ratio at time 1.5 h” value was >188 and the concentration at 1.5 h was 330 nM. Further, in data set [3] (setting [8]), the “BAL % administered dose at time 6 h” value is “BQL”, the “lung/plasma ratio at time 6 h” value is reported as >284 and the concentration at 6 h is recorded as 499 nM. In data set [3] (setting [9]), the “BAL % administered dose at time 24 h” value was “BQL”, the “lung/plasma ratio at time 24 h” value is listed as >140 and the concentration at 24 h was determined as 247 nM. In the data set with MRC5 cells, the “Cell viability at 100 nM (%)” value was determined as 91.5%, the “Cell viability at 300 nM (%)” value is 81% and the “Cell viability at 1000 nM (%)” value came out at 84.8%.
